# Source: PubChem BioAssay (NCI)
#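 Exposure lasted 48 hours, with cells grown in 96-well plates and compounds tested at five concentrations. TGI: concentration producing complete growth inhibition.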
# Assays:
# Test in all cases: NCI-60 cell line screen, 48 h
# [1] = test system: 786-0 renal
# [2] = test system: A498 renal
# [3] = test system: A549 NSCLC
# [4] = test system: ACHN renal
# [5] = test system: CAKI-1 renal
# [6] = test system: CCRF-CEM leukemia
# [7] = test system: COLO 205 colon
# [8] = test system: DLD-1 colon
# [9] = test system: DMS 114 small cell lung
# [10] = test system: DMS 273 small cell lung
# [11] = test system: EKVX NSCLC
# [12] = test system: HCT-116 colon
# [13] = test system: HCT-15 colon
# [14] = test system: HOP-18 NSCLC
# [15] = test system: HOP-62 NSCLC
# [16] = test system: HT29 colon
# [17] = test system: IGROV1 ovarian
# [18] = test system: K-562 leukemia
# [19] = test system: KM12 colon
# [20] = test system: KM20L2 colon
# [21] = test system: LXFL 529 NSCLC
# [22] = test system: M14 melanoma
# [23] = test system: MALME-3M melanoma
# [24] = test system: MOLT-4 leukemia
# [25] = test system: NCI-H226 lung
# [26] = test system: NCI-H23 lung
# [27] = test system: NCI-H460 lung
# [28] = test system: NCI-H522 lung
# [29] = test system: OVCAR-3 ovarian
# [30] = test system: OVCAR-4 ovarian
# [31] = test system: OVCAR-5 ovarian
# [32] = test system: OVCAR-8 ovarian
# [33] = test system: RPMI-8226 leukemia
# [34] = test system: RXF 393 renal
# [35] = test system: RXF-631 renal
# [36] = test system: SF-268 CNS
# [37] = test system: SF-295 CNS
# [38] = test system: SF-539 CNS
# [39] = test system: SK-MEL-2 melanoma
# [40] = test system: SK-MEL-28 melanoma
# [41] = test system: SK-MEL-5 melanoma
# [42] = test system: SK-OV-3 ovarian
# [43] = test system: SN12C renal
# [44] = test system: SNB-19 CNS
# [45] = test system: SNB-75 CNS
# [46] = test system: SNB-78 CNS
# [47] = test system: SW-620 colon
# [48] = test system: TK-10 renal
# [49] = test system: U251 CNS
# [50] = test system: UACC-257 melanoma
# [51] = test system: UACC-62 melanoma
# [52] = test system: UO-31 renal
# [53] = test system: HCC-2998 colon
# [54] = test system: HL-60(TB) leukemia
# [55] = test system: HOP-92 NSCLC
# [56] = test system: LOX IMVI melanoma
# [57] = test system: SR leukemia
# [58] = test system: M19-MEL melanoma
compound,measurement,setting,value
CC1=C(/C=C/C(C)=C/C=C/C(C)=C/C=C/C=C(C)/C=C/C=C(C)/C=C/C=C(C)/C=C/C=C(\C)C(=O)O)C(C)(C)CCC1,TGI,[1],> 100 µM
same,TGI,[2],> 100 µM
same,TGI,[3],> 100 µM
same,TGI,[4],> 100 µM
same,TGI,[5],> 100 µM
same,TGI,[6],> 100 µM
same,TGI,[7],> 100 µM
same,TGI,[8],> 100 µM
same,TGI,[9],> 100 µM
same,TGI,[10],> 100 µM
same,TGI,[11],> 100 µM
same,TGI,[12],> 100 µM
same,TGI,[13],> 100 µM
same,TGI,[14],> 100 µM
same,TGI,[15],> 100 µM
same,TGI,[16],> 100 µM
same,TGI,[17],> 100 µM
same,TGI,[18],> 100 µM
same,TGI,[19],> 100 µM
same,TGI,[20],> 100 µM
same,TGI,[21],> 100 µM
same,TGI,[22],> 100 µM
same,TGI,[23],> 100 µM
same,TGI,[24],> 100 µM
same,TGI,[25],> 100 µM
same,TGI,[26],> 100 µM
same,TGI,[27],> 100 µM
same,TGI,[28],> 100 µM
same,TGI,[29],> 100 µM
same,TGI,[30],> 100 µM
same,TGI,[31],> 100 µM
same,TGI,[32],> 100 µM
same,TGI,[33],> 100 µM
same,TGI,[34],> 100 µM
same,TGI,[35],> 100 µM
same,TGI,[36],> 100 µM
same,TGI,[37],> 100 µM
same,TGI,[38],> 100 µM
same,TGI,[39],> 100 µM
same,TGI,[40],> 100 µM
same,TGI,[41],> 100 µM
same,TGI,[42],> 100 µM
same,TGI,[43],> 100 µM
same,TGI,[44],> 100 µM
same,TGI,[45],> 100 µM
same,TGI,[46],> 100 µM
same,TGI,[47],> 100 µM
same,TGI,[48],> 100 µM
same,TGI,[49],> 100 µM
same,TGI,[50],> 100 µM
same,TGI,[51],> 100 µM
same,TGI,[52],> 100 µM
Cc1ccc(N=Nc2c(-c3ccccc3)nn(C(=O)CC(=O)Nc3ccc(Cl)cc3)c2-c2ccccc2)cc1,TGI,[1],> 100 µM
same,TGI,[2],94.9 µM
same,TGI,[3],> 100 µM
same,TGI,[4],> 100 µM
same,TGI,[5],> 100 µM
same,TGI,[6],72.5 µM
same,TGI,[7],> 100 µM
same,TGI,[8],> 100 µM
same,TGI,[9],> 100 µM
same,TGI,[10],> 100 µM
same,TGI,[11],18.3 µM
same,TGI,[53],> 100 µM
same,TGI,[12],> 100 µM
same,TGI,[13],> 100 µM
same,TGI,[54],> 100 µM
same,TGI,[14],> 100 µM
same,TGI,[15],> 100 µM
same,TGI,[55],66.9 µM
same,TGI,[16],> 100 µM
same,TGI,[17],> 100 µM
same,TGI,[18],> 100 µM
same,TGI,[19],> 100 µM
same,TGI,[20],> 100 µM
same,TGI,[56],> 100 µM
same,TGI,[21],94.5 µM
same,TGI,[22],> 100 µM
same,TGI,[23],> 100 µM
same,TGI,[24],79.1 µM
same,TGI,[25],> 100 µM
same,TGI,[26],> 100 µM
same,TGI,[27],> 100 µM
same,TGI,[28],> 100 µM
same,TGI,[29],99.6 µM
same,TGI,[30],> 100 µM
same,TGI,[31],> 100 µM
same,TGI,[32],> 100 µM
same,TGI,[33],86.7 µM
same,TGI,[34],99.6 µM
same,TGI,[35],> 100 µM
same,TGI,[36],> 100 µM
same,TGI,[37],> 100 µM
same,TGI,[38],> 100 µM
same,TGI,[39],> 100 µM
same,TGI,[40],> 100 µM
same,TGI,[41],> 100 µM
same,TGI,[42],> 100 µM
same,TGI,[43],> 100 µM
same,TGI,[44],> 100 µM
same,TGI,[45],73.5 µM
same,TGI,[46],> 100 µM
same,TGI,[57],57.3 µM
same,TGI,[47],> 100 µM
same,TGI,[49],> 100 µM
same,TGI,[50],> 100 µM
same,TGI,[51],> 100 µM
same,TGI,[52],86.3 µM
CCOC(=O)C1=NC(c2ccccc2)(c2ccccc2)OC1=C(Cl)Cl,TGI,[1],> 100 µM
same,TGI,[2],> 100 µM
same,TGI,[3],> 100 µM
same,TGI,[4],> 100 µM
same,TGI,[5],> 100 µM
same,TGI,[6],> 100 µM
same,TGI,[7],> 100 µM
same,TGI,[8],> 100 µM
same,TGI,[11],> 100 µM
same,TGI,[53],57.4 µM
same,TGI,[12],> 100 µM
same,TGI,[13],> 100 µM
same,TGI,[54],34.8 µM
same,TGI,[14],> 100 µM
same,TGI,[15],> 100 µM
same,TGI,[55],> 100 µM
same,TGI,[16],> 100 µM
same,TGI,[17],> 100 µM
same,TGI,[18],> 100 µM
same,TGI,[19],> 100 µM
same,TGI,[20],> 100 µM
same,TGI,[56],> 100 µM
same,TGI,[21],> 100 µM
same,TGI,[22],> 100 µM
same,TGI,[58],> 100 µM
same,TGI,[23],> 100 µM
same,TGI,[24],> 100 µM
same,TGI,[25],> 100 µM
same,TGI,[26],> 100 µM
same,TGI,[27],> 100 µM
same,TGI,[28],> 100 µM
same,TGI,[29],> 100 µM
same,TGI,[30],> 100 µM
same,TGI,[31],> 100 µM
same,TGI,[32],> 100 µM
same,TGI,[33],> 100 µM
same,TGI,[34],12.5 µM
same,TGI,[35],> 100 µM
same,TGI,[36],> 100 µM
same,TGI,[37],> 100 µM
same,TGI,[38],> 100 µM
same,TGI,[40],> 100 µM
same,TGI,[41],> 100 µM
same,TGI,[42],> 100 µM
same,TGI,[43],> 100 µM
same,TGI,[44],> 100 µM
same,TGI,[45],> 100 µM
same,TGI,[46],> 100 µM
same,TGI,[57],> 100 µM
same,TGI,[47],> 100 µM
same,TGI,[48],> 100 µM
same,TGI,[49],> 100 µM
same,TGI,[50],> 100 µM
same,TGI,[51],> 100 µM
same,TGI,[52],> 100 µM
